# Reference: patent US10562912B2 (C&C Research Laboratories, priority 2013, dated 2020)
# How the values were obtained:
# Type in all cases: cell-based
# [1] = tested on: DU-145; assay: Cell growth inhibition assay, prostate cancer cell line DU-145; settings: Homo sapiens, DU-145 prostate cancer cell line
# How it was run: (§1)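 Cells were seeded at 3,000/well (HCT116, DU-145) or 5,000/well (SW626 and the others) and exposed to serial compound dilutions for 72 to 96 h at 37 °C under 5% CO2. Viability was read as CellTiter-Glo luminescence against 0.1% DMSO and cell-free wells.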
# [2] = tested on: HEL92.1.7; assay: Cell growth inhibition assay, blood cancer cell line HEL92.1.7; settings: Homo sapiens, HEL 92.1.7, HEL92.1.7 blood cancer cell line
# How it was run: as §1
# [3] = tested on: MDA-MB-231; assay: Cell growth inhibition assay, breast cancer cell line MDA-MB-231; settings: Homo sapiens; MDA-MB-231 breast cancer cell line, 5,000 cells/well
# [4] = tested on: LNCaP; assay: Cell growth inhibition assay, prostate cancer cell line LNCaP (medium with 10 ng/mL IL-6); settings: Homo sapiens, medium supplemented with 10 ng/mL of IL-6, 10,000 cells/well
# [5] = tested on: U266; assay: Cell growth inhibition assay, blood cancer cell line U266; settings: Homo sapiens, U-266 blood cancer cell line
# Procedure: The inhibitory effects of the compounds of the present invention against the growth of cancer cells were evaluated as shown below. The cancer cell lines including stomach cancer cell line (AGS), breast cancer cell lines (MDA-MB-231, MDA-MB-468, and BT-549), prostate cancer cell lines (LNCaP and DU-145), colon cancer cell line (HCT116), ovarian cancer cell line (SW626), liver cancer cell line (Hep3B), kidney cancer cell line (ACHN), lung cancer cell line (NCI-H23) and blood cancer cell lines (HEL92.1.7 and U266) were cultured under the protocol provided by each supplier. A medium supplemented with 10 ng/mL of IL-6 was used for LNCaP, a prostate cancer cell line, when treated with a drug. Each type of cells to be used in experiments were sub-cultured in a 96-well plate by counting the exact number of cells using Tali™ Image-based Cytometer (Life Technologies). In a 96-well plate, AGS, HCT116, and DU-145 were employed with 3,000 cells/well; NCI-H23, SW626, Hep3B, ACHN, BT-549, MDA-MB-231, HEL92.1.7, and U266 were employed with 5,000 cells/well; and LNCaP and MDA-MB-468 were employed with 10,000 cells/well. The cells were treated with the compounds listed in Examples which were diluted in various concentrations. Upon completion of the compounds treatment, AGS, HCT116, SW626, DU145, NCI-H23, Hep3B, ACHN, BT-549, LNCaP, HEL92.1.7, and U266 cells were cultured at 37° C. under 5% CO2 for from 72 to 96 hours, and MDA-MB-231 and MDA-MB-468 cells were cultured at 37° C. in air for from 72 to 96 hours. Subsequently, the cells were observed under microscope and drug precipitation and particular findings were investigated and recorded. And then, the 96-well plate was placed at room temperature for 30 minutes, added with 20 μL/well of CellTiter-Glo solution (Cat No. G7573, Promega) and shaken for 10 minutes, followed by being subjected to the measurement using PHERAstar™ microplate reader (BMG LABTECH) according to the supplier's general luminometer protocol. Wells where only culture liquid added without cell plating were used as a negative control, whereas wells where culture liquid containing 0.1% DMSO instead of the compounds listed in Examples were used as a positive control.
# [6] = target: T1, STAT3 (Homo sapiens, UniProt P40763); assay: STAT3 reporter gene assay (luciferase), LNCaP stable cell line (pSTAT3-TA-luc), IL-6 stimulation
# T1 construct: plasmid pSTAT3-TA-luc), which contains a stably operating STAT3 promoter; endogenous in cells
# T1 sequence (P40763 whole entry): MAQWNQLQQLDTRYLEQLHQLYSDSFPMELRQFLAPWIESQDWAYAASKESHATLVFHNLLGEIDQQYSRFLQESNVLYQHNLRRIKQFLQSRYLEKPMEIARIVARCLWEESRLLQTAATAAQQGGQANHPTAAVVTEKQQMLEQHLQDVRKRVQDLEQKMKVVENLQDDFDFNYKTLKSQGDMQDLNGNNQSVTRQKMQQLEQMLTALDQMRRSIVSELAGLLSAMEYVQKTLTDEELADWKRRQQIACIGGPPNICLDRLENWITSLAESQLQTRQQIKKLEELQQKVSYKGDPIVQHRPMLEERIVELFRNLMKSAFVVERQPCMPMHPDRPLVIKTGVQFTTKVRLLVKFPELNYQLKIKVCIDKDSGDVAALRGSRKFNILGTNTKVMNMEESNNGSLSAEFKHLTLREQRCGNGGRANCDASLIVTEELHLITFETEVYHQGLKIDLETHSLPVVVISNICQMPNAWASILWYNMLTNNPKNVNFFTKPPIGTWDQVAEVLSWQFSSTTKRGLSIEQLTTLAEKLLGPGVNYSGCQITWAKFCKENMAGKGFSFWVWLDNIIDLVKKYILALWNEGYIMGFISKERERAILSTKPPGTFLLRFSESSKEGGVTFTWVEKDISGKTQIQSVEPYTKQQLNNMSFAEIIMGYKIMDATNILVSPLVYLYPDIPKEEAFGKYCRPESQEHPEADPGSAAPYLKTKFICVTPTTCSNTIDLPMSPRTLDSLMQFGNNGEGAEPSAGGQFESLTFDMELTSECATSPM
# How it was run: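 LNCaP cells stably carrying pSTAT3-TA-luc, in RPMI1640 with 3% DCC-FBS, were treated with compound and then stimulated with 10 ng/mL IL-6 for 24–48 h at 37 °C. Luciferase activity was measured in lysates. A parallel plate measured viability by CellTiter-Glo, with stimulated 0.1% DMSO wells as the positive control.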
Compound,IC50 [1] [µM],IC50 [2] [µM],IC50 [3] [µM],IC50 [4] [µM],IC50 [5] [µM],IC50 [6] [µM]
"CC(C)(C)OC(=O)N1CCN(Cc2cccc(C(C)(C)c3cc(Br)cc(NC(=O)c4cc5cc(NS(C)(=O)=O)ccc5s4)c3)c2)CC1 [Example 116, tert-butyl 4-(3-(2-(3-bromo-5-(5-(methylsulfonamido)benzo[b]thiophene-2-carboxamido)phenyl)propan-2-yl)benzyl)piperazine-1-carboxylate]",0.058,0.13,0.055,0.22,0.16,0.053
"COc1cc(OC(F)(F)F)cc(C(C)(C)c2cc(Cl)cc(NC(=O)c3cc4ccc(NS(C)(=O)=O)cc4[nH]3)c2)c1 [Example 24, N-(3-chloro-5-(2-(3-methoxy-5-(trifluoromethoxy)phenyl)propan-2-yl)phenyl)-6-(methylsulfonamido)-1H-indole-2-carboxamide]",0.044,0.12,0.027,0.083,0.13,0.051
"CC(C)(c1cccc(CN2CCOCC2)c1)c1cc(Br)cc(NC(=O)c2cc3cc(NS(C)(=O)=O)ccc3s2)c1 [Example 50, N-(3-bromo-5-(2-(3-(morpholinomethyl)phenyl)propan-2-yl)phenyl)-5-(methylsulfonamido)benzo[b]thiophene-2-carboxamide]",0.36,0.83,0.24,0.76,0.84,0.15
"CC(C)Oc1cc(CN2CCOCC2)cc(C(C)(C)c2cc(Br)cc(NC(=O)c3cc4cc(NS(C)(=O)=O)ccc4s3)c2)c1 [Example 122, N-(3-bromo-5-(2-(3-isopropoxy-5-(morpholinomethyl)phenyl)propan-2-yl)phenyl)-5-(methylsulfonamido)benzo[b]thiophene-2-carboxamide]",0.049,0.19,,0.24,0.18,0.12

# More lines, now with the values ahead:
IC50 [1] [µM],IC50 [2] [µM],IC50 [3] [µM],IC50 [4] [µM],IC50 [5] [µM],IC50 [6] [µM],Compound
0.008,0.026,0.002,0.077,0.044,0.007,"CCOc1cc(OC(F)(F)F)cc(C(C)(C)c2cc(Br)cc(NC(=O)c3cc4cc(NS(C)(=O)=O)ccc4s3)c2)c1 [Example 48, N-(3-bromo-5-(2-(3-ethoxy-5-(trifluoromethoxy)phenyl)propan-2-yl)phenyl)-5-(methylsulfonamido)benzo[b]thiophene-2-carboxamide]"
0.009,0.044,0.005,0.032,0.023,0.007,"COc1cc(OC(F)(F)F)cc(C(C)(C)c2cc(Cl)cc(NC(=O)c3cc4cc(NS(C)(=O)=O)ccc4s3)c2)c1 [Example 42, N-(3-chloro-5-(2-(3-methoxy-5-(trifluoromethoxy)phenyl)propan-2-yl)phenyl)-5-(methylsulfonamido)benzo[b]thiophene-2-carboxamide]"
0.06,0.14,,0.13,0.22,0.066,"CCOc1cc(OC(F)(F)F)cc(C(C)(C)c2cc(Br)cc(NC(=O)c3cc4cc(NS(C)(=O)=O)ncc4s3)c2)c1 [Example 61, N-(3-bromo-5-(2-(3-ethoxy-5-(trifluoromethoxy)phenyl)propan-2-yl)phenyl)-5-(methylsulfonamido)thieno[2,3-c]pyridine-2-carboxamide]"
0.003,0.02,,0.029,0.021,0.008,"CC#CCOc1cc(OC(F)(F)F)cc(C(C)(C)c2cc(Cl)cc(NC(=O)c3cc4cc(NS(C)(=O)=O)ccc4s3)c2)c1 [Example 75, N-(3-(2-(3-(but-2-yn-1-yloxy)-5-(trifluoromethoxy)phenyl)propan-2-yl)-5-chlorophenyl)-5-(methylsulfonamido)benzo[b]thiophene-2-carboxamide]"
